Measured values: publication PMC7291858, “An Enhanced Variant Designed From DLP4 Cationic Peptide Against Staphylococcus aureus CVCC 546” (Frontiers in Microbiology, 2020)
Ends that are not written are not given here. Peptide text beside a SMILES is read from it.

Key:
S. aureus CVCC 546 = assay: Potassium ion (K+) leakage; type: cell-based, Staphylococcus aureus; conditions: 1 × MIC, treated for 150 min, 0.9% saline, 10^8 CFU/mL, ICP, n = 3
Procedure: To further investigate the effects of peptides on membrane integrity, K^+ leakage determination was carried out as previously described ([Miao et al., 2016]). Briefly, S. aureus CVCC 546 cells were centrifuged, washed, and resuspended in 0.9% sterile saline. The cell suspension (10^8 CFU/mL) was treated with peptides at 1 × MIC. Cells untreated and treated with DLP4 or nisin were used as blank and positive controls. At time intervals of 30, 60, 90, 120, and 150 min, the suspensions were centrifuged at 12000 rpm for 5 min. The supernatants were then subjected to measurement by Agilent inductively coupled plasma optical emission (ICP-OES).

[1] = system: Staphylococcus aureus CVCC 546; assay: microbe, parasite or virus in culture; type: cell-based; conditions: Table 1; – = no activity
Procedure: (§1) The minimal inhibitory concentration (MIC) was evaluated by a microtiter plate assay ([Wiegand et al., 2008]). Serial 2-fold dilutions of test peptides were placed into a 96-well plate containing identical bacterial inoculum and incubated at 37°C for 16∼20 h. Vancomycin was used as antibiotic control. The MIC value was defined as the lowest peptide concentration where no visible growth occurred. All tests were made in triplicate.

S. aureus ATCC 43300 = type: cell-based, Staphylococcus aureus; conditions: microtiter, serial 2-fold dilutions, 37°C, 16∼20 h, triplicate; – = no activity
Procedure: as §1

Compound	level of released K+ (S. aureus CVCC 546) [mg/L]	MIC [1]	A1 (MIC against S. aureus ATCC 43300) (S. aureus ATCC 43300) [µg/mL]
nisin (ITSISLCTPGCKTGALMGCNMKTATCHCSIHVSK; also: lantibiotic: thioether rings and dehydro residues not placed; UniProt P13068 24-57, looked up) [positive control in K+ leakage assay]	1.03	–	–
CC[C@H](C)[C@@H]1NC(=O)[C@@H]2CSSC[C@@H](C(=O)N[C@@H](CCCNC(=N)N)C(=O)N[C@@H](CC(N)=O)C(=O)O)NC(=O)[C@H](CC(N)=O)NC(=O)[C@@H]3CSSC[C@H](NC(=O)[C@H](C)NC(=O)[C@H](C)NC(=O)[C@H](Cc4c[nH]cn4)NC(=O)CNC(=O)[C@H](C(C)C)NC(=O)CNC(=O)[C@H](Cc4ccccc4)NC(=O)[C@@H]4CCCN4C(=O)[C@H](CO)NC(=O)[C@H](CC(C)C)NC(=O)[C@H](CC(C)C)NC(=O)[C@H](CC(=O)O)NC(=O)[C@@H](NC(=O)[C@@H](NC(=O)[C@H](C)N)[C@@H](C)O)CSSC[C@H](NC(=O)[C@H](Cc4c[nH]c5ccccc45)NC(=O)CNC(=O)CNC(=O)[C@H](CCCNC(=N)N)NC(=O)[C@H](CCCCN)NC(=O)CNC(=O)[C@H](CCCNC(=N)N)NC(=O)[C@H](C)NC1=O)C(=O)N[C@@H](CC(=O)O)C(=O)N[C@@H](CCCCN)C(=O)N[C@@H](CCCNC(=N)N)C(=O)N[C@@H](C)C(=O)N[C@@H](C(C)C)C(=O)N3)C(=O)N[C@@H](C)C(=O)N[C@@H](C)C(=O)N[C@@H](Cc1c[nH]cn1)C(=O)N2 [ID17] (HELM PEPTIDE1{A.T.C.D.L.L.S.P.F.G.V.G.H.A.A.C.A.A.H.C.I.A.R.G.K.R.G.G.W.C.D.K.R.A.V.C.N.C.R.N}$PEPTIDE1,PEPTIDE1,3:R3-30:R3|PEPTIDE1,PEPTIDE1,16:R3-36:R3|PEPTIDE1,PEPTIDE1,20:R3-38:R3$$$V2.0; N-terminus and C-terminus assumed; bridges inferred)	–	64	16
CC[C@H](C)[C@@H]1NC(=O)[C@@H]2CSSC[C@@H](C(=O)N[C@@H](CCCNC(=N)N)C(=O)N[C@@H](CCCCN)C(=O)O)NC(=O)[C@H](CC(N)=O)NC(=O)[C@@H]3CSSC[C@H](NC(=O)[C@H](C)NC(=O)[C@H](C)NC(=O)[C@H](Cc4c[nH]cn4)NC(=O)CNC(=O)[C@H](C(C)C)NC(=O)CNC(=O)[C@H](Cc4ccccc4)NC(=O)[C@@H]4CCCN4C(=O)[C@H](CO)NC(=O)[C@H](CC(C)C)NC(=O)[C@H](CC(C)C)NC(=O)[C@H](CC(=O)O)NC(=O)[C@@H](NC(=O)[C@@H](NC(=O)[C@H](C)N)[C@@H](C)O)CSSC[C@H](NC(=O)[C@H](Cc4c[nH]c5ccccc45)NC(=O)CNC(=O)CNC(=O)[C@H](CCCNC(=N)N)NC(=O)[C@H](CCCCN)NC(=O)CNC(=O)[C@H](CCCNC(=N)N)NC(=O)[C@H](C)NC1=O)C(=O)N[C@@H](CC(=O)O)C(=O)NCC(=O)N[C@@H](CCCNC(=N)N)C(=O)N[C@@H](C)C(=O)N[C@@H](C(C)C)C(=O)N3)C(=O)N[C@@H](C)C(=O)N[C@@H](C)C(=O)N[C@@H](Cc1c[nH]cn1)C(=O)N2 [ID16] (HELM PEPTIDE1{A.T.C.D.L.L.S.P.F.G.V.G.H.A.A.C.A.A.H.C.I.A.R.G.K.R.G.G.W.C.D.G.R.A.V.C.N.C.R.K}$PEPTIDE1,PEPTIDE1,3:R3-30:R3|PEPTIDE1,PEPTIDE1,16:R3-36:R3|PEPTIDE1,PEPTIDE1,20:R3-38:R3$$$V2.0; N-terminus and C-terminus assumed; bridges inferred)	–	16	8
CC[C@H](C)[C@@H]1NC(=O)[C@@H]2CSSC[C@@H](C(=O)N[C@@H](CCCNC(=N)N)C(=O)N[C@@H](CCCCN)C(=O)O)NC(=O)[C@H](CC(N)=O)NC(=O)[C@@H]3CSSC[C@H](NC(=O)[C@H](C)NC(=O)[C@H](C)NC(=O)[C@H](Cc4c[nH]cn4)NC(=O)CNC(=O)[C@H](C(C)C)NC(=O)[C@H](CCCCN)NC(=O)[C@H](Cc4ccccc4)NC(=O)[C@@H]4CCCN4C(=O)[C@H](CO)NC(=O)[C@H](CC(C)C)NC(=O)[C@H](CC(C)C)NC(=O)[C@H](CC(=O)O)NC(=O)[C@@H](NC(=O)[C@@H](NC(=O)[C@H](C)N)[C@@H](C)O)CSSC[C@H](NC(=O)[C@H](Cc4c[nH]c5ccccc45)NC(=O)CNC(=O)CNC(=O)[C@H](CCCNC(=N)N)NC(=O)[C@H](CCCCN)NC(=O)CNC(=O)[C@H](CCCNC(=N)N)NC(=O)[C@H](C)NC1=O)C(=O)N[C@@H](CC(=O)O)C(=O)N[C@@H](CCCCN)C(=O)N[C@@H](CCCNC(=N)N)C(=O)N[C@@H](C)C(=O)N[C@@H](C(C)C)C(=O)N3)C(=O)N[C@@H](C)C(=O)N[C@@H](CC(C)C)C(=O)N[C@@H](Cc1c[nH]cn1)C(=O)N2 [ID27] (HELM PEPTIDE1{A.T.C.D.L.L.S.P.F.K.V.G.H.A.A.C.A.L.H.C.I.A.R.G.K.R.G.G.W.C.D.K.R.A.V.C.N.C.R.K}$PEPTIDE1,PEPTIDE1,3:R3-30:R3|PEPTIDE1,PEPTIDE1,16:R3-36:R3|PEPTIDE1,PEPTIDE1,20:R3-38:R3$$$V2.0; N-terminus and C-terminus assumed; bridges inferred)	–	8	8
